Data taken from PMC11013284, “Chemoselective Synthesis and Anti-Kinetoplastidal Properties of 2,6-Diaryl-4H-tetrahydro-thiopyran-4-one S-Oxides: Their Interplay in a Cascade of Redox Reactions from Diarylideneacetones” (Molecules, 2024).
Like-named read-outs stand apart in the source and are kept apart here.

Experiments:
[1] = system: murine macrophages; test: Qualitative toxicity toward mouse macrophages; conditions: concentration at which toxicity was observed; 64, 16 and 4 µM tested
Description: (§1) The cytotoxicity of compounds was evaluated toward human diploid embryonic lung fibroblast hMRC-5SV2 cells, derived from fetal lung tissue and first described in 1970. hMRC-5SV2 cells were cultured in 96-well plates with five concentrations of the compound (64, 16, 4, 1, and 0.25 μM). After 3 days of incubation, the cell viability was assessed fluorimetrically after the addition of resazurin, and fluorescence was measured (λex = 550 nm, λem = 590 nm). The results were expressed as a percentage reduction in cell growth/viability compared to control wells, and a 50% cytotoxic concentration (CC50) was calculated. The reference cytotoxic drugs were tamoxifen or ivermectin. Additionally, toxicity toward mouse macrophages was qualitatively observed. Three concentrations were included (64, 16, and 4 µM), and the range of toxicity was ranked from the least toxic to the most toxic compound.

[2] = in vitro; conditions: human, CC50 hMRC-5 (cytotoxicity)
Description: as §1

[3] = system: Trypanosoma cruzi (Tulahuen CL2 β-galactosidase) amastigotes in hMRC-5SV2 cells; test: T. cruzi intracellular amastigote assay (β-galactosidase/CPRG); type: cell-based; conditions: intracellular amastigotes, 7 days, read-out: IC50 T. cruzi intramacrophage amastigotes (converted)
Description: A nifurtimox-sensitive strain (Tulahuen CL2 β-galactosidase) in human lung fibroblast hMRC-5SV2 cells was incubated for 7 days in 96-well plates with five concentrations of compound (64, 16, 4, 1, and 0.25 μM). The parasitic burden was evaluated through the activity of the enzyme β-galactosidase on a specific chlorophenol red ß-D-galactopyranoside (CPRG) substrate. Live parasites converted the yellow-orange CPRG substrate into the red chromophore chlorophenol red, yielding a dark-red solution, which could be quantitatively measured at 540 nm after 4 h of incubation at 37 °C. The results were expressed as a percentage reduction in parasite growth/viability compared to control wells, and an IC50 was calculated.

[4] = system: Trypanosoma brucei brucei trypomastigotes, suramin-sensitive strain (Squib 427); test: T. b. brucei growth/viability assay (resazurin); type: cell-based; conditions: 3 days
Description: After 3 days, parasite growth was assessed fluorimetrically following the addition of resazurin. After 24 h at 37 °C, fluorescence was measured (λex = 550 nm, λem = 590 nm). The results were expressed as a percentage reduction in parasite growth/viability compared to control wells, and a 50% inhibitory concentration (IC50) was calculated.

[5] = system: Trypanosoma brucei brucei trypomastigotes, suramin-sensitive strain (Squib 427); design: method as in earlier work; conditions: Table 1, preliminary study; read-out: IC50 T. b. brucei; cited from earlier work
[6] = system: L. infantum (MHOM/MA(BE)/67) amastigotes in primary peritoneal mouse macrophages; test: L. infantum intramacrophage amastigote assay (microscopic burden); type: cell-based, Leishmania infantum; conditions: 5 days, mouse macrophages as host
Description: L. infantum (MHOM/MA(BE)/67 strain) amastigote were incubated for 5 days in 96-well plates with five concentrations of compound (64, 16, 4, 1, and 0.25 μM). Primary peritoneal mouse macrophages were used as host cells. Parasite burdens (i.e., the number of amastigotes per macrophage) were microscopically assessed. The results were expressed as a percentage reduction in parasite burden compared to untreated control wells, and an IC50 was calculated.

[7] = system: Trypanosoma cruzi (Tulahuen CL2 β-galactosidase) amastigotes in hMRC-5SV2 cells; design: method as in earlier work; conditions: Table 1, preliminary study; read-out: IC50 T. cruzi; cited from earlier work
[8] = system: WT LV9 L. donovani intramacrophage amastigotes; test: L. donovani intramacrophage amastigote assay; type: cell-based, Leishmania donovani; conditions: for IC50: WT LV9, ± SD in Tables S5/S6, read-out: IC50 L. donovani intramacrophage amastigotes
[9] = system: L. donovani LV9 axenic amastigotes; test: L. donovani axenic amastigote assay (SYBR green I); type: cell-based, Leishmania donovani
Description: L. donovani amastigote forms were suspended to yield 10^7 cells/mL. The final compound concentrations used were 100 µM, 10 µM, 1 µM, 500 nM, and 50 nM. Duplicates were used for each concentration. Cultures were incubated at 37 °C for 72 h in the dark and under a 5% CO2 atmosphere; then, the viability of the amastigotes was assessed using the SYBR® green I (Invitrogen, France) incorporation method. Parasite growth was determined by using SYBR® Green I, a dye with marked fluorescence enhancement upon contact with parasite DNA. Parasites were lysed following Direct PCReCell Genotyping without DNA isolation protocol (Euromedex, Souffelweyersheim, France). A total of […] of SYBR Green I was added to each well, and the contents were mixed. Fluorescence was measured with Mastercylcer® ep realplex (Eppendorf, Montesson, France). The fluorescence obtained was compared to those from the range obtained with different parasite densities.

[10] = system: macrophages
[11] = Solubility observations (crystals in assay, insolubility in solvents); type: physicochemical; conditions: for solubility (observation): almost all types of solvent, even at very low concentrations
[12] = system: L. infantum (MHOM/MA(BE)/67) amastigotes in primary peritoneal mouse macrophages; design: method as in earlier work; conditions: Table 1, preliminary study; cited from earlier work
[13] = system: human diploid embryonic lung fibroblast hMRC-5SV2 cells; test: in vitro; conditions: human, 3 days
Description: as §1

[14] = system: WT LV9 L. donovani promastigotes; test: L. donovani promastigote assay (MTT), wild type; type: cell-based; conditions: Leishmania donovani, 72 h, 3 days; read-out: IC50 ± SD WT LV9 L. donovani promastigotes
Description: (§2) L. donovani promastigote forms from the logarithmic phase culture were suspended to yield 10^6 cells/mL. Miltefosine was used as the antileishmanial reference compound. Compounds to be evaluated and miltefosine were distributed in the plates by making a serial dilution. The final concentrations used were between 100 µM and 50 nM. Triplicates were used for each concentration. After a 3-day incubation period at 27 °C in the dark and under a 5% CO2 atmosphere, the viability of the promastigotes was assessed using the tetrazolium-dye (MTT) colorimetric method, which measures the reduction of a tetrazolium component (MTT) into an insoluble formazan product by the mitochondria of viable cells. After the incubation of the cells with the MTT reagent, a detergent solution (Triton X100, HCl) was added to lyse the cells and dissolve the colored crystals. The absorbance at 570 nm, directly proportional to the number of viable cells, was measured using an ELISA plate reader. The results were expressed as the concentrations inhibiting parasite growth by 50% (IC50) ± SD after a 3-day incubation period.

[15] = system: HePC-R L. donovani promastigotes; test: L. donovani promastigote assay, miltefosine-resistant strain; type: cell-based; conditions: Leishmania donovani, read-out: IC50 ± SD HePC-R L. donovani promastigotes
Description: as §2

[16] = Trypanosoma cruzi, TULAHUEN, 168 h
[17] = Leishmania infantum, Macrophage, 120 h

Q: What does the source list for `Cl.Cl.O=C(/C=C/c1ccncc1)/C=C/c1ccncc1` [1y]?
A: Toxicity (T) observed toward murine macrophages [1]: T3 (T3 = 4); CC50 at 3 days [2]: 1.1 µM; IC50 [3, 16]: ≤ 0.3 µM; IC50 ([4]; Trypanosoma brucei, 72 h): ≤ 0.3 µM; IC50 [5]: ≤ 0.3 µM; IC50 [6, 17]: 1 µM; IC50 [7]: ≤ 0.3 µM

Q: Which IC50 ([8]; Leishmania donovani) does the source give for `CN(C)c1ccc(/C=C/C(=O)/C=C/c2ccc(N(C)C)cc2)cc1` [1u] here?
A: 6.3 ± 0.8 µM

Q: And the IC90 ([8]; Leishmania donovani, Table S6, read-out: IC90 ± SD LV9 intramacrophage amastigotes)?
A: 7.8 ± 1 µM

Q: What about the “IC99 ± SD LV9 intramacrophage amastigotes” value ([8]; Table S6) of the same compound?
A: 9.9 ± 1.3 µM

Q: What about the IC50 ([9]; Leishmania donovani, LV9, read-out: IC50 ± SD L. donovani axenic amastigotes) of the same compound?
A: 8.7 ± 0.6 µM

Q: And the IC90 ([9]; Leishmania donovani, Table S6, read-out: IC90 ± SD LV9 axenic amastigotes)?
A: 64.2 ± 0.7 µM

Q: And the “IC99 ± SD LV9 axenic amastigotes” value ([9]; Table S6)?
A: 567.3 ± 0.9 µM

Q: What about the “observed macrophage death / lysis observed at” value [10] of the same compound?
A: 200 µM

Q: And the CC50 at 3 days [2]?
A: 62.3 µM

Q: And the IC50 [3, 16]?
A: 36.9 µM

Q: And the IC50 ([4]; Trypanosoma brucei, 72 h)?
A: 0.8 µM

Q: What about the IC50 [6, 17] of the same compound?
A: > 64 µM

Q: Which “Toxicity (T) observed toward murine macrophages” value (from here on “Toxicity”) [1] does the source give for `O=C(/C=C/c1c(Cl)cccc1Cl)/C=C/c1c(Cl)cccc1Cl` [1h] here?
A: T1 (T1 = 64)

Q: And the “observed macrophage death / lysis observed at” value [10]?
A: > 6.2 µM

Q: And the CC50 at 3 days [2]?
A: > 64 µM

Q: And the IC50 [3, 16]?
A: 39.5 µM

Q: What about the IC50 ([4]; Trypanosoma brucei, 72 h) of the same compound?
A: > 64 µM

Q: What about the IC50 [6, 17] of the same compound?
A: 32.5 µM

Q: And the “presence of crystals, concentration range” value ([11]; noted in L. donovani assay, Table S5)?
A: 0.8 to 200 µM

Q: Which “Toxicity” value [1] does the source give for `COc1cc(Br)c(O)c(/C=C/C(=O)/C=C/c2cc(OC)cc(Br)c2O)c1` [1p] here?
A: T1 (T1 = 64)

Q: What about the CC50 at 3 days [2] of the same compound?
A: 1 µM

Q: What about the IC50 [3, 16] of the same compound?
A: ≤ 0.3 µM

Q: What about the IC50 ([4]; Trypanosoma brucei, 72 h) of the same compound?
A: ≤ 0.3 µM

Q: And the IC50 [5]?
A: ≤ 0.3 µM

Q: What about the IC50 [6, 17] of the same compound?
A: 1 µM

Q: And the IC50 [7]?
A: ≤ 0.3 µM

Q: Which CC50 at 3 days [2] does the source give for `O=C(/C=C/c1ccc(C(F)(F)F)cc1)/C=C/c1ccc(C(F)(F)F)cc1` [1r] here?
A: 26.2 µM

Q: And the IC50 [12]?
A: > 64 µM

Q: What about the IC50 [3, 16] of the same compound?
A: 1.6 µM

Q: And the IC50 ([4]; Trypanosoma brucei, 72 h)?
A: 0.2 µM

Q: And the IC50 [6, 17]?
A: > 64 µM

Q: Which “Toxicity” value [1] does the source give for `COc1ccc(C2CC(=O)CC(c3ccc(OC)cc3)S2(=O)=O)cc1` (stereo not drawn) [4′d, cis-2,6-Di-(p-anisyl)-4H-tetrahydrothiopyran-4-one 1,1-dioxide] here?
A: T1 (T1 = 64)

Q: What about the CC50 [13] of the same compound?
A: ≥ 64 µM

Q: What about the IC50 [3] of the same compound?
A: 34.4 µM

Q: And the IC50 [4]?
A: 2.1 µM

Q: What about the IC50 [6] of the same compound?
A: 20.3 µM

Q: What about the “solubility (observation)” value [11] of the same compound?
A: insolubility

Q: And the “solubility (observation)” value ([11]; listed as 4’d)?
A: Solubility issues

Q: With `N#Cc1ccc(/C=C/C(=O)/C=C/c2ccc(C#N)cc2)cc1` [1t] as the compound, how does the IC50 ([8]; Leishmania donovani) read?
A: > 50 µM

Q: And the “IC50 ± SD L. donovani axenic amastigotes” value ([9]; LV9)?
A: T at 6.25-200 µM

Q: And the “Toxicity” value [1]?
A: T2 (T2 = 16)

Q: And the “observed macrophage death / lysis observed at” value [10]?
A: > 100 µM

Q: What about the CC50 at 3 days [2] of the same compound?
A: 57.1 µM

Q: And the IC50 [3, 16]?
A: 11.9 µM

Q: And the IC50 ([4]; Trypanosoma brucei, 72 h)?
A: 1.5 µM

Q: What about the IC50 [6, 17] of the same compound?
A: 5.1 µM

Q: And the IC50 [14]?
A: 6.6 ± 0.6 µM

Q: And the IC50 [15]?
A: 2.4 ± 0.1 µM
